Source: patent US9255063B2, “Colchicine solid-state forms; methods of making; and methods of use thereof” (Takeda Pharmaceuticals U.S.A., Inc., priority 2008, dated 2016)

Assays:
[1] = 81% RH; nitrogen; 38 days
Description: Five techniques are used to find colchicine solid forms: 1) suspension equilibration, 2) precipitation 3) drying and water vapor adsorption, 4) evaporation, and 5) melt quench. Suspension equilibration generally is carried out by slurrying the colchicine in a solvent system, optionally including an antisolvent. Precipitation generally is carried out by adding an antisolvent to a solution of colchicine. Evaporation technique is generally carried out by allowing the solvent of a solution of colchicine to evaporate to induce crystallization of the colchicine. Water vapor adsorption technique generally involves exposing colchicine to a controlled humid environment so that the material takes up water. The drying experiments can be performed under inert atmospheres (e.g., nitrogen). Melt quench generally involves fast cooling a melt to form a solid.

[2] = TG-FTIR, N2 atmosphere, heating rate 10 K/min, range 25° C. to 350° C.

| Structure (SMILES) | Ethyl acetate content after water vapor adsorption [1] [% ethyl] | Water content after water vapor adsorption [1] [% water and] | Decomposition is observed above (temperature) [2] |
| --- | --- | --- | --- |
| COc1cc2c(c(OC)c1OC)-c1ccc(OC)c(=O)cc1[C@@H](NC(C)=O)CC2 [Form A, (−)-N-[(7S,12aS)-1,2,3,10-tetramethoxy-9-oxo-5,6,7,9-tetrahydrobenzo[a]heptalen-7-yl]-acetamide] | 2 | 4 | above 275 °C |
| COc1cc2c(c(OC)c1OC)-c1ccc(OC)c(=O)cc1[C@@H](NC(C)=O)CC2 [Form E] | – | – | above 250 °C |
| COc1cc2c(c(OC)c1OC)-c1ccc(OC)c(=O)cc1[C@@H](NC(C)=O)CC2 [Form F] | – | – | above 280 °C |
